Patent US10081647B2, “Phosphate substituted quinolizine derivatives useful as HIV integrase inhibitors” (Merck Sharp & Dohme Corp., priority 2015, dated 2018)
Read-outs that look alike come from different tables or passages of the source.

System: HIV-1 (NL4-3 strain)
Assay: Assay for inhibition of HIV replication (MT4-gag-GFP reporter cell line, kinetic assay)
Type: cell-based
Conditions: IP from 4-parameter dose response curve
Procedure: This assay is useful for assessing the ability of a compound of the present inventiongin to inhibit HIV replication. The assay is a kinetic assay that employs a reporter cell line (MT4-gag-GFP) to quantify the number of new cells infected in each round of replication.
MT4-GFP cells (250,000 cells/ml) are bulk-infected with HIV-1 (NL4-3 strain) at low multiplicity of infection (MOI) in RPMI+10% FBS for 24 hours. Cells are then washed once in RPMI+10% FBS and resuspended in RPMI+0% or 10% or 100% normal human serum (NHS). Test compounds are serial-diluted in DMSO using an ECHO liquid handler. The infected MT4-GFP cells are added to a 384-well poly-D-lysine coated black plate with clear bottom in which the diluted test compounds are placed. The cells are seeded at 8,000 cells per well and the final DMSO concentration is adjusted to 0.4%. The infected cells (Green GFP cells) are then quantified at both 24 and 48 hours post incubation using Acumen eX3. Viral reproductive ratio (R0) is determined using the number of infected cells at 48 hours divided by the number of infected cells at 24 hours. Percent viral growth inhibition is calculated by [1−(R−Rtripledrug)/(RDMSO−Rtripledrug)]*100. Compound potency IP or IC50 can be determined using a 4-parameter dose response curve analysis.

[1] = infected MT4-GFP cells in 100% normal human serum, read-out: WILD TYPE CELL ASSAY Viking IP (100% NHS)
[2] = infected MT4-GFP cells in RPMI + 0% normal human serum, read-out: WILD TYPE CELL ASSAY Viking IP (0% NHS)
[3] = Human immunodeficiency virus 1, NL43, infected MT4-GFP cells in 100% normal human serum, read-out: WILD TYPE CELL ASSAY Viking IP (100% NHS)
[4] = Human immunodeficiency virus 1, NL43, infected MT4-GFP cells in RPMI + 0% normal human serum, read-out: WILD TYPE CELL ASSAY Viking IP (0% NHS)

| Compound | IC50 [1] [nM] | IC50 [2] [nM] | IC50 [3] [nM] | IC50 [4] [nM] |
| --- | --- | --- | --- | --- |
| CCOP(=O)(CCOCC1(C)C(=O)c2c(O)c(=O)c(C(=O)NCc3ccc(F)cc3F)cn2CC1OC)OCC (centres unmarked) [Compound 32] | 425 | 7.5 |  |  |
| CCOP(=O)(CCOCC1(C)C(=O)c2c(O)c(=O)c(C(=O)NCc3ccc(F)cc3F)cn2CC1OC)OCC (centres unmarked) [Compound 33] | 188 | 13 |  |  |
| CCOP(=O)(CCOCC1(C)C(=O)c2c(O)c(=O)c(C(=O)NCc3ccc(F)cc3F)cn2CC1OC)OCC (centres unmarked) [Compound 34] | 238 | 8.2 |  |  |
| CCOP(=O)(CCOCC1(C)C(=O)c2c(O)c(=O)c(C(=O)NCc3ccc(F)cc3F)cn2CC1OC)OCC (centres unmarked) [Compound 35] | 86 | 3.5 |  |  |
| COC1Cn2cc(C(=O)NCc3ccc(F)cc3F)c(=O)c(O)c2C(=O)C1(C)COCCP(=O)(O)O (centres unmarked) [Compound 36] | 3600 | 629 |  |  |
| COC1Cn2cc(C(=O)NCc3ccc(F)cc3F)c(=O)c(O)c2C(=O)C1(C)COCCP(=O)(O)O (centres unmarked) [Compound 37] | > 8000 | > 1000 |  |  |
| COC1Cn2cc(C(=O)NCc3ccc(F)cc3F)c(=O)c(O)c2C(=O)C1(C)COCCP(=O)(O)O (centres unmarked) [Compound 38] | 6050 | 738 |  |  |
| COC1Cn2cc(C(=O)NCc3ccc(F)cc3F)c(=O)c(O)c2C(=O)C1(C)COCCP(=O)(O)O (centres unmarked) [Compound 39] | 6930 | 337 |  |  |
| COC1Cn2cc(C(=O)NCc3ccc(F)cc3F)c(=O)c(O)c2C(=O)C1(C)COCCP(=O)(OCOC(=O)OC(C)C)OCOC(=O)OC(C)C (centres unmarked) [Compound 40] | 118 | 0.5 |  |  |
| COC1Cn2cc(C(=O)NCc3ccc(F)cc3F)c(=O)c(O)c2C(=O)C1(C)COCCP(=O)(OCOC(=O)OC(C)C)OCOC(=O)OC(C)C (centres unmarked) [Compound 41] | > 8000 | 0.97 |  |  |
| COC1Cn2cc(C(=O)NCc3ccc(F)cc3F)c(=O)c(O)c2C(=O)C1(C)COCCP(=O)(OCOC(=O)OC(C)C)OCOC(=O)OC(C)C (centres unmarked) [Compound 42] | 407 | 1.2 |  |  |
| COC1Cn2cc(C(=O)NCc3ccc(F)cc3F)c(=O)c(O)c2C(=O)C1(C)COCCP(=O)(OCOC(=O)OC(C)C)OCOC(=O)OC(C)C (centres unmarked) [Compound 43] | 1480 | 1.4 |  |  |
| CCOP(=O)(CCCOCCC1(C)C(=O)c2c(O)c(=O)c(C(=O)NCc3ccc(F)cc3F)cn2CC1OC)OCC (centres unmarked) [Compound 44] | 159 | 7.2 |  |  |
| CCOP(=O)(CCCOCCC1(C)C(=O)c2c(O)c(=O)c(C(=O)NCc3ccc(F)cc3F)cn2CC1OC)OCC (centres unmarked) [Compound 45] | 300 | 8.2 |  |  |
| CCOP(=O)(CCCOCCC1(C)C(=O)c2c(O)c(=O)c(C(=O)NCc3ccc(F)cc3F)cn2CC1OC)OCC (centres unmarked) [Compound 46] | 102 | 4.2 |  |  |
| CCOP(=O)(CCCOCCC1(C)C(=O)c2c(O)c(=O)c(C(=O)NCc3ccc(F)cc3F)cn2CC1OC)OCC (centres unmarked) [Compound 47] | 4600 | 298 |  |  |
| COC1Cn2cc(C(=O)NCc3ccc(F)cc3F)c(=O)c(O)c2C(=O)C1(C)CCOCCCP(=O)(O)O (centres unmarked) [Compound 48] |  |  | 6940 | 626 |
| COC1Cn2cc(C(=O)NCc3ccc(F)cc3F)c(=O)c(O)c2C(=O)C1(C)CCOCCCP(=O)(O)O (centres unmarked) [Compound 49] | > 8400 | > 1050 |  |  |
| COC1Cn2cc(C(=O)NCc3ccc(F)cc3F)c(=O)c(O)c2C(=O)C1(C)CCOCCCP(=O)(O)O (centres unmarked) [Compound 50] | > 8400 | > 1050 |  |  |
| CCOP(=O)(CCOCCC1(C)C(=O)c2c(O)c(=O)c(C(=O)NCc3ccc(F)cc3F)cn2CC1OC)OCC (centres unmarked) [Compound 54] | 223 | 11 |  |  |
| CCOP(=O)(CCOCCC1(C)C(=O)c2c(O)c(=O)c(C(=O)NCc3ccc(F)cc3F)cn2CC1OC)OCC (centres unmarked) [Compound 55] | 128 | 6.7 |  |  |
| CCOP(=O)(CCOCCC1(C)C(=O)c2c(O)c(=O)c(C(=O)NCc3ccc(F)cc3F)cn2CC1OC)OCC (centres unmarked) [Compound 56] | 86 | 4.6 |  |  |
| CCOP(=O)(CCOCCC1(C)C(=O)c2c(O)c(=O)c(C(=O)NCc3ccc(F)cc3F)cn2CC1OC)OCC (centres unmarked) [Compound 57] | 84 | 7 |  |  |
| COC1Cn2cc(C(=O)NCc3ccc(F)cc3F)c(=O)c(O)c2C(=O)C1(C)CCOCCP(=O)(O)O (centres unmarked) [Compound 58] | > 8400 |  |  | > 1050 |
| COC1Cn2cc(C(=O)NCc3ccc(F)cc3F)c(=O)c(O)c2C(=O)C1(C)CCOCCP(=O)(O)O (centres unmarked) [Compound 59] | 4260 | > 1050 |  |  |

| Compound | IC50 [1] [nM] | IC50 [2] [nM] | IC50 [3] [nM] | IC50 [4] [nM] |
| --- | --- | --- | --- | --- |
| COC1Cn2cc(C(=O)NCc3ccc(F)cc3F)c(=O)c(O)c2C(=O)C1(C)CCOCCP(=O)(O)O (centres unmarked) [Compound 60] | 5180 | 765 |  |  |
| COC1Cn2cc(C(=O)NCc3ccc(F)cc3F)c(=O)c(O)c2C(=O)C1(C)CCOCCP(=O)(O)O (centres unmarked) [Compound 61] | 2500 | 970 |  |  |
| COC1Cn2cc(C(=O)NCc3ccc(F)cc3F)c(=O)c(O)c2C(=O)C1(C)CCOCCP(=O)(OCOC(=O)OC(C)C)OCOC(=O)OC(C)C (centres unmarked) [Compound 62] | 4700 | 14 |  |  |
| COC1Cn2cc(C(=O)NCc3ccc(F)cc3F)c(=O)c(O)c2C(=O)C1(C)CCOCCP(=O)(OCOC(=O)OC(C)C)OCOC(=O)OC(C)C (centres unmarked) [Compound 63] | 566 | 4.6 |  |  |
| COC1Cn2cc(C(=O)NCc3ccc(F)cc3F)c(=O)c(O)c2C(=O)C1(C)CCOCCP(=O)(OCOC(=O)OC(C)C)OCOC(=O)OC(C)C (centres unmarked) [Compound 64] | 289 | 2.9 |  |  |
| CCOP(=O)(CCOC1Cn2cc(C(=O)NCc3ccc(F)cc3F)c(=O)c(O)c2C(=O)C1(C)C)OCC (centres unmarked) [Compound 65] | 131 | 5.4 |  |  |
| CCOP(=O)(CCOC1Cn2cc(C(=O)NCc3ccc(F)cc3F)c(=O)c(O)c2C(=O)C1(C)C)OCC (centres unmarked) [Compound 66] | 1280 | 19 |  |  |
| CC1(C)C(=O)c2c(O)c(=O)c(C(=O)NCc3ccc(F)cc3F)cn2CC1OCCP(=O)(O)O (centres unmarked) [Compound 67] |  |  | 4260 | 669 |
| CC1(C)C(=O)c2c(O)c(=O)c(C(=O)NCc3ccc(F)cc3F)cn2CC1OCCP(=O)(O)O (centres unmarked) [Compound 68] | > 8000 | > 1000 |  |  |
| CC(C)OC(=O)OCOP(=O)(CCOC1Cn2cc(C(=O)NCc3ccc(F)cc3F)c(=O)c(O)c2C(=O)C1(C)C)OCOC(=O)OC(C)C (centres unmarked) [Compound 69] | 25 | 1.1 |  |  |
| CC(C)OC(=O)OCOP(=O)(CCOC1Cn2cc(C(=O)NCc3ccc(F)cc3F)c(=O)c(O)c2C(=O)C1(C)C)OCOC(=O)OC(C)C (centres unmarked) [Compound 70] | 2020 | 13 |  |  |
| CCOP(=O)(CCCOC1Cn2cc(C(=O)NCc3ccc(F)cc3F)c(=O)c(O)c2C(=O)C1(C)C)OCC (centres unmarked) [Compound 71] | 173 | 9.5 |  |  |
| CCOP(=O)(CCCOC1Cn2cc(C(=O)NCc3ccc(F)cc3F)c(=O)c(O)c2C(=O)C1(C)C)OCC (centres unmarked) [Compound 72] | 923 | 26 |  |  |
| CC1(C)C(=O)c2c(O)c(=O)c(C(=O)NCc3ccc(F)cc3F)cn2CC1OCCCP(=O)(O)O (centres unmarked) [Compound 73] |  |  | > 8400 | 836 |
| CC1(C)C(=O)c2c(O)c(=O)c(C(=O)NCc3ccc(F)cc3F)cn2CC1OCCCP(=O)(O)O (centres unmarked) [Compound 74] | > 8400 | > 1050 |  |  |
| CC(C)OC(=O)OCOP(=O)(CCCOC1Cn2cc(C(=O)NCc3ccc(F)cc3F)c(=O)c(O)c2C(=O)C1(C)C)OCOC(=O)OC(C)C (centres unmarked) [Compound 75] | 191 | 6.3 |  |  |
| CC(C)OC(=O)OCOP(=O)(CCCOC1Cn2cc(C(=O)NCc3ccc(F)cc3F)c(=O)c(O)c2C(=O)C1(C)C)OCOC(=O)OC(C)C (centres unmarked) [Compound 76] | 2770 | 45 |  |  |
| CCOP(=O)(CCOC1Cn2cc(C(=O)NCc3ccc(F)cc3F)c(=O)c(O)c2C(=O)C1(C)CCOC)OCC (centres unmarked) [Compound 77] | 128 | 5.5 |  |  |
| CCOP(=O)(CCOC1Cn2cc(C(=O)NCc3ccc(F)cc3F)c(=O)c(O)c2C(=O)C1(C)CCOC)OCC (centres unmarked) [Compound 78] | 580 | 17 |  |  |
| CCOP(=O)(CCOC1Cn2cc(C(=O)NCc3ccc(F)cc3F)c(=O)c(O)c2C(=O)C1(C)CCOC)OCC (centres unmarked) [Compound 79] | 177 | 15 |  |  |
| CCOP(=O)(CCOC1Cn2cc(C(=O)NCc3ccc(F)cc3F)c(=O)c(O)c2C(=O)C1(C)CCOC)OCC (centres unmarked) [Compound 80] | 2750 | 378 |  |  |
| COCCC1(C)C(=O)c2c(O)c(=O)c(C(=O)NCc3ccc(F)cc3F)cn2CC1OCCP(=O)(O)O (centres unmarked) [Compound 81] | 2120 | 665 |  |  |
| COCCC1(C)C(=O)c2c(O)c(=O)c(C(=O)NCc3ccc(F)cc3F)cn2CC1OCCP(=O)(O)O (centres unmarked) [Compound 82] | > 8000 | 729 |  |  |
| COCCC1(C)C(=O)c2c(O)c(=O)c(C(=O)NCc3ccc(F)cc3F)cn2CC1OCCP(=O)(O)O (centres unmarked) [Compound 83] | 5380 | > 1000 |  |  |
